Measurements reported in PubChem BioAssay (NCI).
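Assay format: 96-well plates, 48-hour exposure. Here, GI50 denotes the concentration required for 50% inhibition of growth. The concentration for full growth arrest is given as TGI.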

How the values were obtained:
Test in all cases: NCI-60 cell line screen, 48 h
A498 renal = test system: A498 renal
HCC-2998 colon = test system: HCC-2998 colon
HT29 colon = test system: HT29 colon
MALME-3M melanoma = test system: MALME-3M melanoma
MOLT-4 leukemia = test system: MOLT-4 leukemia
NCI-H460 lung = test system: NCI-H460 lung
SNB-19 CNS = test system: SNB-19 CNS
SNB-75 CNS = test system: SNB-75 CNS
HCT-116 colon = test system: HCT-116 colon
K-562 leukemia = test system: K-562 leukemia
UO-31 renal = test system: UO-31 renal
DU-145 prostate = test system: DU-145 prostate

Compound	GI50 (A498 renal)	TGI (A498 renal)	GI50 (HCC-2998 colon)	TGI (HCC-2998 colon)	GI50 (HT29 colon)	TGI (HT29 colon)	GI50 (MALME-3M melanoma)	TGI (MALME-3M melanoma)	GI50 (MOLT-4 leukemia)	TGI (MOLT-4 leukemia)	GI50 (NCI-H460 lung)	TGI (NCI-H460 lung)	GI50 (SNB-19 CNS)	TGI (SNB-19 CNS)	GI50 (SNB-75 CNS)	TGI (SNB-75 CNS)	TGI (HCT-116 colon)	TGI (K-562 leukemia)	TGI (UO-31 renal)	TGI (DU-145 prostate)
COc1ccc(-c2nc(-c3nc4cc(Cl)c(Cl)cc4[nH]3)c3ccccn23)cc1	4.2 µM	> 100 µM	> 100 µM	> 100 µM	4.42 µM	> 100 µM	2.51 µM	5.85 µM	> 100 µM	> 100 µM	3.01 µM	> 100 µM	2.64 µM	> 100 µM	1.73 µM	3.23 µM				
COc1ccc(/C=C2\C(=O)N(C(=O)c3ccc(NC(C)=O)cc3)N=C2C)cc1OC				> 100 µM		> 100 µM		> 100 µM		> 100 µM		> 100 µM		> 100 µM		> 100 µM	> 100 µM	> 100 µM	> 100 µM	
CC(C)(C)c1ccc(O)c(C(O)c2ccccn2)c1 (stereo not drawn)				85.9 µM		> 100 µM		> 100 µM		> 100 µM		> 100 µM		> 100 µM		> 100 µM	> 100 µM	> 100 µM	> 100 µM	> 100 µM
CCOC(=O)c1nc2ccccc2nc1Nc1cc(OC)c(OC)c(OC)c1				> 100 µM		> 100 µM		> 100 µM		> 100 µM		> 100 µM		> 100 µM		> 100 µM	> 100 µM	> 100 µM	> 100 µM	> 100 µM
Cc1ccccc1NC(=O)C(=O)C(C1OC(=O)c2ccccc21)[N+](=O)[O-] (stereo not drawn)		> 100 µM		> 100 µM		> 100 µM				> 100 µM		> 100 µM		> 100 µM		> 100 µM	> 100 µM	> 100 µM	> 100 µM	
COc1cc2c(c3nc4ccccc4nc13)-c1ccc(SC)c(=O)cc1[C@@H](NC(C)=O)CC2		> 65.1 µM						0.0861 µM		> 100 µM		> 100 µM		> 100 µM		> 100 µM	> 100 µM	> 100 µM	> 100 µM	0.838 µM
COc1ccc(Nc2nc3ccccc3nc2-c2cccs2)cc1OC				> 10 µM		> 10 µM				> 10 µM		> 10 µM		> 10 µM		> 10 µM	> 10 µM	> 10 µM	> 10 µM	> 10 µM
CN(C)c1ccc(-c2c(C#N)c(-c3ccccc3)n(NS(=O)(=O)c3ccccc3)c(=O)c2C#N)cc1		> 100 µM		> 100 µM		> 100 µM		> 100 µM		55.8 µM		> 100 µM		83.5 µM		> 100 µM	> 100 µM	> 100 µM		
O=C1c2cccnc2S(=O)(=O)N1c1ccc(Br)cc1		> 100 µM				> 100 µM		> 100 µM		> 100 µM				> 100 µM		> 100 µM	> 100 µM	> 100 µM	> 100 µM	> 100 µM
NC(=O)N/N=C(\Cc1cc(=O)oc2cc(O)ccc12)C(=O)Nc1ccccc1C(N)=O				> 100 µM		> 100 µM				> 100 µM		> 100 µM		> 100 µM		> 100 µM	> 100 µM		> 100 µM	> 100 µM
CC(Nc1cccc(Cl)c1)c1ccncc1 (stereo not drawn)		> 100 µM				> 100 µM		> 100 µM		> 100 µM		> 100 µM		> 100 µM		> 100 µM	> 100 µM	> 100 µM	> 100 µM	> 100 µM
CC(C)C(Sc1nc(-c2ccccc2)c(-c2ccccc2)[nH]1)C(=O)N/N=C/c1ccc(Cl)cc1 (stereo not drawn)		43.2 µM				36.9 µM		47.7 µM				52.8 µM		> 100 µM		67.6 µM	29.4 µM		47.8 µM	
Cc1ccc(S(=O)(=O)N(CC(O)COc2ccccc2)c2c(F)c(F)c(F)c(F)c2F)cc1 (stereo not drawn)		33.2 µM		34.5 µM		33 µM		53.1 µM		56.4 µM		30.3 µM		43.3 µM		36.5 µM	44 µM		25.1 µM	72.9 µM
Cn1c2ccccc2n2c(=O)c(-c3ccc(Cl)cc3)nnc12		> 100 µM		> 100 µM		> 100 µM		> 100 µM		> 100 µM		> 100 µM		> 100 µM		> 100 µM	> 100 µM		> 100 µM	> 100 µM
O=C1C(NS(=O)(=O)c2ccccc2)=C(n2ccnc2)C(=O)c2ccccc21						> 100 µM		> 100 µM		> 100 µM		> 100 µM		> 100 µM		> 100 µM	> 100 µM	> 100 µM	> 100 µM	> 100 µM
